Assay results reported in ChEMBL document CHEMBL4364269, “Identification of a novel orally bioavailable ERK5 inhibitor with selectivity over p38α and BRD4” (Eur J Med Chem, 2019).
Values belong to the compound of their own block, whether it stands above or below them.

Legend:
A2780 [1] = test: Antitumor activity against human A2780 cells xenografted in CD1 mouse assessed as reduction in tumor volume at 50 mg/kg, ip administered bid for 10 days started on day 7 post-tumor inoculation and measured three times per week by digital caliper analysis; type: functional
[2] = biological target: Bromodomain-containing protein 4 (Homo sapiens, UniProt O60885); test: Inhibition of BRD4 (unknown origin)
[3] = Toxicity in CD1 mouse xenografted with human A2780 cells assessed as body weight at 50 mg/kg, ip administered bid for 10 days (reference value: 96%); type: organism-based; settings: in vivo, 240 h
[4] = biological target: Mitogen-activated protein kinase 14 (Homo sapiens, UniProt Q16539); test: Inhibition of recombinant N-terminal GST-tagged full length human p38alpha expressed in Escherichia coli cells assessed as substrate phosphorylation using Ulight-MBP peptide as substrate incubated for 1 hr by LANCE assay
Chain of Mitogen-activated protein kinase 14 (Q16539 whole entry, the tested form may be a part): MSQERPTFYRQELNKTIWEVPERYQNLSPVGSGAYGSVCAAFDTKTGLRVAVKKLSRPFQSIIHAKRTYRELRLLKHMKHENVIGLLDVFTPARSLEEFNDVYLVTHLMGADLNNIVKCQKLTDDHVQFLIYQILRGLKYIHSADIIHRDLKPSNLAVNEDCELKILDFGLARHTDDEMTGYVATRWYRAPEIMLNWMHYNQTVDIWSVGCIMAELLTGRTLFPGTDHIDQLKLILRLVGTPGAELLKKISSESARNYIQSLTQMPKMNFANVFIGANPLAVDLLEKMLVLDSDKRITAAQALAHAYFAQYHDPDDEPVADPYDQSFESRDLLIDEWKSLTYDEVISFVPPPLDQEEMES

[5] = biological target: T1, Mitogen-activated protein kinase 7 (Homo sapiens, UniProt Q13164); test: Inhibition of HA-tagged ERK5 (unknown origin) coexpressed with mutationally activated EGFP-MEK5D and Gal4-MEF2D in HEK293 cells assessed as reduction in MEF2 transcription by measuring luciferase signal after 20 hrs by luciferase reporter gene assay; type: cell-based
T1 sequence (Q13164 whole entry, the tested form may be a part): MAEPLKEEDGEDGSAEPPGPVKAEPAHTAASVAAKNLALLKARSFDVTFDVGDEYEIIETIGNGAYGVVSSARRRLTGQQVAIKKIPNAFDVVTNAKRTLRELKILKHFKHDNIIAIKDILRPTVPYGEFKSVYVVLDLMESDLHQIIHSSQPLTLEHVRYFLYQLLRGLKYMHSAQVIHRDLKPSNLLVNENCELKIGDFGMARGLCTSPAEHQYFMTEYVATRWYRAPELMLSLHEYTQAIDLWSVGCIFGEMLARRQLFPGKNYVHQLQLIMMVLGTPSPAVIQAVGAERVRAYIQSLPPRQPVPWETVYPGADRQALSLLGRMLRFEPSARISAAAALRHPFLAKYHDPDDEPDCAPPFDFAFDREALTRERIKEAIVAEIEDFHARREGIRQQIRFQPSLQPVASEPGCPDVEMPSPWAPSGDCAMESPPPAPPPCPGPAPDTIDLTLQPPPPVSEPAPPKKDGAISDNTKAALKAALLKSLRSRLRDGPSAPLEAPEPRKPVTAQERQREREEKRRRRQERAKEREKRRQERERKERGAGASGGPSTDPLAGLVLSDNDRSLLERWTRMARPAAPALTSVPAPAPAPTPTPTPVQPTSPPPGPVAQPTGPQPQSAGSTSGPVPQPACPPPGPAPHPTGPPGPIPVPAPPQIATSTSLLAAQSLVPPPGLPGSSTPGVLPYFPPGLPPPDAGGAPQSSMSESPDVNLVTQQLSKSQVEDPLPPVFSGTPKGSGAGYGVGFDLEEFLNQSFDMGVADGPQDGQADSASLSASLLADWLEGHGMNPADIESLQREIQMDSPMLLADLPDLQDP

[6] = biological target: T1, Mitogen-activated protein kinase 7; test: Inhibition of recombinant N-terminal His-tagged human ERK5 (2 to 409 residues) co-expressed with GST-tagged human truncated MEK5DD lacking N-terminal 11 residues (13 to 448 residues) in Sf9 insect cells assessed as substrate peptide phosphorylation using (LVEPLTPSGEAPNQ(K-5FAM)-COOH as substrate incubated for 2 hrs by IMAP fluorescence polarisation assay
[7] = Cmax in CD1 mouse at 10 mg/kg, po measured upto 24 hrs by LCMS analysis; type: ADME, organism-based; set-up: dose 10 mg/kg, route oral; settings: in vivo
[8] = Solubility of compound by turbidometry; type: physicochemical
[9] = Stability in mouse liver microsomes assessed as intrinsic clearance per mg protein; type: ADME, Microsome; settings: read-out: CLH
[10] = AUC in CD1 mouse at 10 mg/kg, iv measured upto 24 hrs by LCMS analysis; type: ADME, organism-based; set-up: time < 24 hr, dose 10 mg/kg, route intravenous; settings: in vivo
[11] = Permeability across basolateral to apical side in human Caco2 cells; type: ADME, cell-based; settings: Caco-2, read-out: permeability
[12] = Fraction unbound in plasma (unknown origin); type: ADME, cell-free
[13] = Half life in CD1 mouse at 10 mg/kg, iv measured upto 24 hrs by LCMS analysis; type: ADME, organism-based; settings: in vivo
Cytochrome P450 2D6 = Cytochrome P450 2D6 (Homo sapiens, UniProt P10635); test: Inhibition of CYP2D6 (unknown origin); type: ADME
Chain of Cytochrome P450 2D6 (P10635 whole entry): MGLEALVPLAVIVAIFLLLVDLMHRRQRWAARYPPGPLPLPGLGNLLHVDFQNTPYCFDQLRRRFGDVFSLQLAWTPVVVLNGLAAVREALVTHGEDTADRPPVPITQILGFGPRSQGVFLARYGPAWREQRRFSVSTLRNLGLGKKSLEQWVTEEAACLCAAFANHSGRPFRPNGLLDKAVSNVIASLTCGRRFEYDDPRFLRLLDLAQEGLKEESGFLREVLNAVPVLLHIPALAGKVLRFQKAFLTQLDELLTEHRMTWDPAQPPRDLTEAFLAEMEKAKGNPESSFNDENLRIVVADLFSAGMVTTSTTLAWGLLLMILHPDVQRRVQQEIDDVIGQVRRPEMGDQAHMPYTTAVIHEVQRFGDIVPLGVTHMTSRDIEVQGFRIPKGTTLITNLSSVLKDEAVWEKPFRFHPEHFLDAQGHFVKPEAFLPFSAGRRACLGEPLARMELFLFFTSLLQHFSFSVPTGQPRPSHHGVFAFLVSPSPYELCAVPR

[14] = AUC in CD1 mouse at 10 mg/kg, po measured upto 24 hrs by LCMS analysis; type: ADME, organism-based; set-up: dose 10 mg/kg, time < 24 hr, route oral; settings: in vivo
[15] = Clearance in CD1 mouse at 10 mg/kg, iv measured upto 24 hrs by LCMS analysis; type: ADME, organism-based; settings: in vivo
A2780 [16] = test: Antitumor activity against human A2780 cells xenografted in CD1 mouse assessed as reduction in tumor volume at 100 mg/kg, po administered bid for 10 days started on day 7 post-tumor inoculation and measured three times per week by digital caliper analysis; type: functional
[17] = Stability in human liver microsomes assessed as intrinsic clearance per mg protein; type: ADME, Microsome; settings: read-out: CLH
Cytochrome P450 2C9 = Cytochrome P450 2C9 (Homo sapiens, UniProt P11712); test: Inhibition of CYP2C9 (unknown origin); type: ADME
Chain of Cytochrome P450 2C9 (P11712 whole entry): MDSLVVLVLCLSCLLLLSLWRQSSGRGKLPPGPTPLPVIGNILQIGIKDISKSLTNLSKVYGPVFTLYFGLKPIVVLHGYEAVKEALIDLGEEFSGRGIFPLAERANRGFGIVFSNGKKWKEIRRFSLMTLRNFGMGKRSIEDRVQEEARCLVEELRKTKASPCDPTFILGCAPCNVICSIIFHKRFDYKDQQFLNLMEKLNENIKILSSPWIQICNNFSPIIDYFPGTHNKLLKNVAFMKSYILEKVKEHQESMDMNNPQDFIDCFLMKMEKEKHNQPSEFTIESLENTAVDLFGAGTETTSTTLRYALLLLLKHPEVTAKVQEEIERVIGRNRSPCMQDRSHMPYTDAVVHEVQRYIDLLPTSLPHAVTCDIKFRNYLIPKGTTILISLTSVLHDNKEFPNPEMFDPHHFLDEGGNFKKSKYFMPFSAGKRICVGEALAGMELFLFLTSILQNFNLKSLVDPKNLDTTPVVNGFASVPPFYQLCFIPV

Cytochrome P450 3A4 = Cytochrome P450 3A4 (Homo sapiens, UniProt P08684); test: Inhibition of CYP3A4 (unknown origin); type: ADME
Chain of Cytochrome P450 3A4 (P08684 whole entry): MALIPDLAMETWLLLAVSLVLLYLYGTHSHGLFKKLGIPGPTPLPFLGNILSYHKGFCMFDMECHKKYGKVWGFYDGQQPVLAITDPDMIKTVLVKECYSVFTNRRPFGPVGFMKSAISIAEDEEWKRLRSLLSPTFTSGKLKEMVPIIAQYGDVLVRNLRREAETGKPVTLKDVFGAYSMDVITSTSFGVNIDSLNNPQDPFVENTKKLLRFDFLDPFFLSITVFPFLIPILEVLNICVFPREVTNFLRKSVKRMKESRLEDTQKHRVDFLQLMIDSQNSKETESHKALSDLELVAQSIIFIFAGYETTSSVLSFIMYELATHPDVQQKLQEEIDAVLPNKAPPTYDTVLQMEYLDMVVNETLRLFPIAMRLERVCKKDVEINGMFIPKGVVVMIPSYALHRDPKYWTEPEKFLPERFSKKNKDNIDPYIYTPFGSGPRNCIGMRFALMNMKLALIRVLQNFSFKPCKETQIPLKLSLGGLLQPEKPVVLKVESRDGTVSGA

Cytochrome P450 2C19 = Cytochrome P450 2C19 (Homo sapiens, UniProt P33261); test: Inhibition of CYP2C19 (unknown origin); type: ADME
Chain of Cytochrome P450 2C19 (P33261 whole entry): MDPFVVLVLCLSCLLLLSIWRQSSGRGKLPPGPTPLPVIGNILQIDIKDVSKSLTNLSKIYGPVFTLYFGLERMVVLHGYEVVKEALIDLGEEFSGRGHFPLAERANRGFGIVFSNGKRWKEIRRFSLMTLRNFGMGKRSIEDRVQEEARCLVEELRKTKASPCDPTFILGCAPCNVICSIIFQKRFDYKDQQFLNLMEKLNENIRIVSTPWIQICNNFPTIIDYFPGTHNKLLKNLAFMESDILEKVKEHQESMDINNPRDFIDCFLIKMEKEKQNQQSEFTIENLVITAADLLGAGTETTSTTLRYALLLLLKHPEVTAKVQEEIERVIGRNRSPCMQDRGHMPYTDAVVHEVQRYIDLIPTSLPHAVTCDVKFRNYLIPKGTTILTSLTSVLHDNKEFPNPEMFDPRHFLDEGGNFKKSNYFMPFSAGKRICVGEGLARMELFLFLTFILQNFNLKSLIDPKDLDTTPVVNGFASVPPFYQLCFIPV

[18] = Toxicity in CD1 mouse xenografted with human A2780 cells assessed as body weight at 100 mg/kg, po administered bid for 10 days (reference value: 96%); type: organism-based; settings: in vivo, 240 h
[19] = Cmax in CD1 mouse at 10 mg/kg, iv measured upto 24 hrs by LCMS analysis; type: ADME, organism-based; set-up: dose 10 mg/kg, route intravenous; settings: in vivo
[20] = Oral bioavailability in CD1 mouse at 10 mg/kg measured upto 24 hrs by LCMS analysis; type: ADME, organism-based; settings: in vivo
PC-3 = test: Growth inhibition of human PC3 cells; type: functional
[21] = Volume of distribution in CD1 mouse at 10 mg/kg, iv measured upto 24 hrs by LCMS analysis; type: ADME, organism-based; settings: in vivo
[22] = Tmax in CD1 mouse at 10 mg/kg, po measured upto 24 hrs by LCMS analysis; type: ADME, organism-based; settings: in vivo
[23] = biological target: T1, Mitogen-activated protein kinase 7; test: Inhibition of ERK5 (unknown origin) using R7129 as substrate incubated for 2 hrs by IMAP fluorescence polarization analysis

Kd [2]: 1.6 µM
Structure (SMILES): CCOc1cc(N2CCC(O)CC2)ccc1Nc1ncc2c(n1)N(C)c1ccccc1C(=O)N2C
inhibition in vivo at 50 mg/kg (A2780 [1]): 62%
Activity [3]: 98%

IC50 [4]: 100 µM
IC50 [5]: 8 µM
Structure (SMILES): O=C(Nc1ccncc1)c1cc(C(=O)c2c(F)cccc2F)c[nH]1

IC50 [6]: 1.1 µM
IC50 [4]: 35 µM
Structure (SMILES): O=C(Nc1cccnc1)c1cc(C(=O)c2c(F)cccc2F)c[nH]1

IC50 [4]: 93.2 µM
Structure (SMILES): O=C(Nc1cccnc1)c1cc(C(=O)c2c(F)cccc2Cl)c[nH]1

IC50 [6]: 4.4 µM
IC50 [4]: 12.3 µM
Structure (SMILES): O=C(NCc1ccncc1)c1cc(C(=O)c2c(Cl)cccc2Cl)c[nH]1

IC50 [6]: 0.7 µM
IC50 [4]: > 120 µM
IC50 [5]: 4 µM
Structure (SMILES): O=C(Nc1ccncc1)c1cc(C(=O)c2c(F)cccc2Br)c[nH]1

Cmax [7]: 6 µM
solubility kinetic [8]: > 100 µM
microsomal CLint [9]: 26 µL/min/mg
AUC at 24 h [10]: 6200 ng·h/mL
Papp B→A [11]: > 10 ×10⁻⁶ cm/s
fraction unbound [12]: 0.06
half-life [13]: 38 min
IC50 (Cytochrome P450 2D6): > 5 µM
AUC at 24 h [14]: 4230 ng·h/mL
clearance [15]: 27 mL/min/kg
IC50 [4]: > 120 µM
microsomal CLint [17]: < 5 µL/min/mg
IC50 (Cytochrome P450 2C9): > 5 µM
IC50 (Cytochrome P450 3A4): > 5 µM
IC50 (Cytochrome P450 2C19): > 5 µM
Cmax [19]: 25 µM
bioavailability [20]: 68%
GI50 (PC-3): 44 µM
Vd [21]: 1.2 L/kg
Tmax [22]: 15 min
Structure (SMILES): O=C(Nc1cccnc1)c1cc(C(=O)c2c(F)cccc2Br)c[nH]1
inhibition in vivo at 100 mg/kg (A2780 [16]): 57%
Activity [18]: 99%

IC50 [6]: 5.9 µM
IC50 [4]: 0.36 µM
Structure (SMILES): O=C(NCc1ccncc1)c1cc(C(=O)c2ccccc2F)c[nH]1

IC50 [6]: > 120 µM
Structure (SMILES): O=C(c1ccc(F)cc1)c1c[nH]c(C(=O)NCc2ccncc2)c1

IC50 [6]: 6.3 µM
IC50 [4]: 6.5 µM
Structure (SMILES): O=C(c1cccc(Cl)c1)c1c[nH]c(C(=O)NCc2ccncc2)c1

IC50 [6]: 30 µM
IC50 [4]: 0.58 µM
Structure (SMILES): O=C(NCc1ccncc1)c1cc(C(=O)c2c(F)cccc2F)c[nH]1

IC50 [6]: 15 µM
Structure (SMILES): O=C(NCc1ccncc1)c1cc(C(=O)c2ccccc2Cl)c[nH]1

IC50 [6]: > 120 µM
Structure (SMILES): O=C(c1cccc(F)c1)c1c[nH]c(C(=O)NCc2ccncc2)c1

IC50 [6]: 40 µM
Structure (SMILES): O=C(c1ccccc1)c1c[nH]c(C(=O)NCc2ccncc2)c1

IC50 [23]: 2 µM
Structure (SMILES): O=C(NCc1ccncc1)c1cc(C(=O)c2cccc(Cl)c2Cl)c[nH]1

IC50 [6]: 7 µM
IC50 [4]: 2.4 µM
Structure (SMILES): O=C(NCc1ccncc1)c1cc(C(=O)c2cccc(F)c2F)c[nH]1

IC50 [6]: > 120 µM
Structure (SMILES): O=C(c1ccc(Cl)cc1)c1c[nH]c(C(=O)NCc2ccncc2)c1

IC50 [4]: > 120 µM
IC50 [5]: 2.3 µM
Structure (SMILES): O=C(Nc1ccncc1)c1cc(C(=O)c2c(F)cccc2Cl)c[nH]1
